The assay addresses T1, NMDA receptor composed of four subunits including 2 sets of heterodimers of NR1 and NR2B (Homo sapiens, UniProt Q13224).
T1 construct: host or cells: HEK293 (tetracycline-induced expression)
Nature of the assay: NR2B Ca2+ influx assay (FLIPR, Fluo-4) in HEK293 cells expressing human GRIN1 and GRIN2B. The class given is cell-based. The following applies: HEK293, 10 μM final compound concentration, glutamic acid/glycine-induced Ca2+ influx, read-out: inhibitory rate (10 μM compound concentration). An outline of the steps: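 Tetracycline-induced (2 h) HEK293 cells expressing human GRIN1/GRIN2B, Fluo-4-loaded, were preincubated 15 min at room temperature with compound at 10 μM final. FLIPR recorded Ca2+ influx every 3 s for 5 min after glutamate/glycine addition (30 μM in added buffer); inhibition from cumulative fluorescence relative to agonist-free wells.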

T1 sequence (Q13224 27-1484, other chains not shown): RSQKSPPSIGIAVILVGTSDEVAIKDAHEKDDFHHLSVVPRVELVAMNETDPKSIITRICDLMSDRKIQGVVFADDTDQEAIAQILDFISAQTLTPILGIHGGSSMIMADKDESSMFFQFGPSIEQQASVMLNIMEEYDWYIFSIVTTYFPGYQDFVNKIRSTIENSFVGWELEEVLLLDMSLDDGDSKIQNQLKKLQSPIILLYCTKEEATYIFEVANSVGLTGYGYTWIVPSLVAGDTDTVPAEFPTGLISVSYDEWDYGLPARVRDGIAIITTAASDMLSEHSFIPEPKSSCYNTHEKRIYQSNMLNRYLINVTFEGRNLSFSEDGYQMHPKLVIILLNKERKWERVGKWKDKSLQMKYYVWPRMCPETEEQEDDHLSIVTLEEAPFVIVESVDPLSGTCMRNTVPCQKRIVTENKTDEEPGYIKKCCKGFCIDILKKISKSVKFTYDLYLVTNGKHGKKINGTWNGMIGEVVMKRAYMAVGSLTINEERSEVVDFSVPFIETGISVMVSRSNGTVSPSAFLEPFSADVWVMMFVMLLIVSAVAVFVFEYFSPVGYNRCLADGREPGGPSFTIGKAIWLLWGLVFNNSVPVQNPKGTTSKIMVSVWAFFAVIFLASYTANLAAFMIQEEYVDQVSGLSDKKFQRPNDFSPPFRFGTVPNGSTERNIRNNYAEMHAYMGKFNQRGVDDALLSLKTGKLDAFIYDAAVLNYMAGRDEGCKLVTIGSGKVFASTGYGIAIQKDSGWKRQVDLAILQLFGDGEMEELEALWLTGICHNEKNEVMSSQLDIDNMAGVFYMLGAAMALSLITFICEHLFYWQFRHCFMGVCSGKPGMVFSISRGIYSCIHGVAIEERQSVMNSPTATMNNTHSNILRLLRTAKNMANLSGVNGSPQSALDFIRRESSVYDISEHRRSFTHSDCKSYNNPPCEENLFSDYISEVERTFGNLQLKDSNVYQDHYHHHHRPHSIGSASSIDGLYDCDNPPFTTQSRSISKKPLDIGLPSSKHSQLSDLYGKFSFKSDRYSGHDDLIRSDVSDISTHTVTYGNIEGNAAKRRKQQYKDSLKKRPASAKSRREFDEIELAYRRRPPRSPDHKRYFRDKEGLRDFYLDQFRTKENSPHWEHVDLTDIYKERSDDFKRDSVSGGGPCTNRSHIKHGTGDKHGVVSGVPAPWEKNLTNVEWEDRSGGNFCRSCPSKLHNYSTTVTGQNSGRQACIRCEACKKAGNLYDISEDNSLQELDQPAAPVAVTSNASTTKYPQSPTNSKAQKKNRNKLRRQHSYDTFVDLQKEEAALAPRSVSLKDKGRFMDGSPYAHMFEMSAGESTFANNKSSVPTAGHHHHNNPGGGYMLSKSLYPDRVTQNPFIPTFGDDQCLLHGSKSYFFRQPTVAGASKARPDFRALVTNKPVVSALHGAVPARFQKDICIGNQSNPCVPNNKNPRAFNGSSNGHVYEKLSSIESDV

In the case of `Cc1csc(C(=O)NCc2c(C3CC3)ccc3[nH]ncc23)c1` [Example 63, N-((5-cyclopropyl-1H-indazol-4-yl)methyl)-methylthiophene-2-carboxamide], the inhibition at 10 µM stood at 89%.
In the case of `COc1c(F)cc(C(=O)NCc2cccc3ncn(C)c23)cc1F` [Example 160, 3,5-difluoro-4-methoxy-N-((1-methyl-1H-benzimidazol-7-yl)methyl)benzamide] it was 65%.
In the case of `CCc1cc(C(=O)NCc2c(OC)ccc3ncn(C)c23)cs1` [Example 29] it was 91%; in that of `CCc1ccc2ncn(C)c2c1CNC(=O)c1ccc(C(F)F)cc1` [Example 133, 4-(difluoromethyl)-N-((6-ethyl-1-methyl-1H-benzimidazol-7-yl)methyl)benzamide], 91%; in that of `COc1ccc2ncn(C)c2c1CNC(=O)Nc1cccc(F)c1` [Example 216, 1-(3-fluorophenyl)-3-((6-methoxy-l-methyl-1H-benzimidazol-7-yl)methyl)urea], 78%.
In the case of `Cc1c(F)cc(C(=O)NCc2c(C3CC3)ccc3[nH]ncc23)cc1F` [Example 97, N-((5-cyclopropyl-1H-indazol-4-yl)methyl)-3,5-difluoro-4-methylbenzamide] it was 94%; in that of `COc1ncc(C(=O)NCc2c(C)ccc3[nH]nnc23)cc1F` [Example 193, 5-fluoro-6-methoxy-N-((5-methyl-1H-benzotriazol-4-yl)methyl)nicotinamide], 86%; in that of `O=C(NCc1c(C2CC2)ccc2[nH]ncc12)c1ccc(OC(F)F)cc1` [Example 100, N-((5-cyclopropyl-1H-indazol-4-yl)methyl)-4-(difluoromethoxy)-benzamide], 91%.
As to `CCc1ccc2ncn(C)c2c1CNC(=O)c1csc(Cl)c1` [Example 147, 5-chloro-N-((6-ethyl-1-methyl-1H-benzimidazol-7-yl)methyl)thiophene-3-carboxamide], the inhibition at 10 µM was determined as 92%.
In the case of `O=C(NCc1cccc2[nH]ncc12)c1ccc(F)c(Cl)c1` [Example 186, 3-chloro-4-fluoro-N-(1H-indazol-4-ylmethyl)benzamide] it was 56%; in that of `O=C(NCc1c(C2CC2)ccc2[nH]ncc12)c1ccc(F)c(Cl)c1` [Example 77, 3-chloro-N-((5-cyclopropyl-1H-indazol-4-yl)methyl)-4-fluorobenzamide], 92%; in that of `O=C(NCc1c(C2CC2)ccc2[nH]ncc12)c1cc(F)c(F)c(F)c1` [Example 79, N-((5-cyclopropyl-1H-indazol-4-yl)methyl)-3,4,5-trifluoro-benzamide], 92%.
In the case of `COc1cc(C(=O)NCc2c(OC)ccc3ncn(C)c23)ccc1F` [Example 46, 4-fluoro-3-methoxy-N-((6-methoxy-1-methyl-1H-benzimidazol-7-yl)methyl)benzamide] it was 68%; in that of `COc1ccc2ncn(C)c2c1CNC(=O)Nc1ccc(C(F)(F)F)cc1F` [Example 260, 1-(2-fluoro-4-(trifluoromethyl)-phenyl)-3-((6-methoxy-1-methyl-1H-benzimidazol-7-yl)methyl)urea], 92%.
In the case of `O=C(NCc1cccc2[nH]ncc12)c1cc(F)c(OC(F)F)c(F)c1` [Example 184, 4-(difluoromethoxy)-3,5-difluoro-N-(1H-indazol-4-ylmethyl)benzamide] it was 93%; in that of `COc1ccc2ncn(C)c2c1CNC(=O)c1ccc(OC(F)F)cc1F` [Example 277, 4-(difluoromethoxy)-2-fluoro-N-[(6-methoxy-1-methyl-1H-benzimidazol-7-yl)methyl]benzamide], 63%.
On to `Cc1ccc(C(=O)NCc2c(C3CC3)ccc3[nH]ncc23)cc1F` [Example 93, N-((5-cyclopropyl-1H-indazol-4-yl)methyl)-3-fluoro-4-methyl-benzamide], for which the inhibition at 10 µM came to 94%.
The result for `COc1ncc(C(=O)NCc2c(C3CC3)ccc3ncn(C)c23)cc1F` [Example 20, N-((6-cyclopropyl-1-methyl-1H-benzimidazol-7-yl)methyl)-5-fluoro-6-methoxynicotinamide] reads 90%; that for `Cc1ccc2ncn(C)c2c1CNC(=O)c1ccc(OC(F)(F)F)c(F)c1` [Example 30, N-((1,6-dimethyl-1H-benzimidazol-7-yl)-methyl)-3-fluoro-4-(trifluoromethoxy)-benzamide], 90%; that for `COc1ccc2ncn(C)c2c1CNC(=O)Cc1cccs1` [Example 33, N-((6-methoxy-1-methyl-1H-benzimidazol-7-yl)methyl)-2-(2-thienyl)acetamide], 86%.
The result for `COCc1ccc2ncn(C)c2c1CNC(=O)c1cc(F)c(OC)c(F)c1` [Example 279, 3,5-difluoro-4-methoxy-N-{[6-(methoxymethyl)-1-methyl-1H-benzimidazol-7-yl]methyl}benzamide] reads 88%.
In the case of `COc1ccc2ncn(C)c2c1CNC(=O)c1cc(Cl)c(F)c(Cl)c1` [Example 49, 3,5-dichloro-4-fluoro-N-((6-methoxy-1-methyl-1H-benzimidazol-7-yl)methyl)benzamide] it was 69%; in that of `COc1ccc2ncn(C)c2c1CNC(=O)Nc1cccc(Cl)c1` [Example 219, 1-(3-chlorophenyl)-3-((6-methoxy-1-methyl-1H-benzimidazol-7-yl)methyl)urea], 72%; in that of `COc1ccc2ncn(C)c2c1CNC(=O)c1cc(Cl)cs1` [Example 42, 4-chloro-N-((6-methoxy-1-methyl-1H-benzimidazol-7-yl)-methyl)thiophene-2-carboxamide], 87%.
For the molecule `O=C(NCc1cccc2[nH]ncc12)c1ccc(C(F)F)cc1` [Example 177, 4-(difluoromethyl)-N-(1H-indazol-4-ylmethyl)benzamide], the inhibition at 10 µM is 52%.
The result for `CCOc1ncc(C(=O)NCc2c(C3CC3)ccc3[nH]ncc23)cc1F` [Example 119, N-((5-cyclopropyl-1H-indazol-4-yl)methyl)-6-ethoxy-5-fluoronicotinamide] reads 94%; that for `COc1ccc2nc(C)n(C)c2c1CNC(=O)c1ccc(OC(F)(F)F)cc1` [Example 252, N-((6-methoxy-l,2-dimethyl-1H-benzimidazol-7-yl)methyl)-4-(trifluoromethoxy)-benzamide], 88%; that for `COc1ccc2ncn(C)c2c1CNC(=O)c1cnc(OC)c(F)c1` [Example 10, 5-fluoro-6-methoxy-N-((6-methoxy-1-methyl-1H-benzimidazol-7-yl)methyl)nicotinamide], 92%.
The result for `COc1ccc2ncn(C)c2c1CNC(=O)c1ccc(OC(F)(F)F)nc1` [Example 56, ((6-methoxy-1-methyl-1H-benzimidazol-7-yl)methyl)-6-(trifluoro-methoxy)nicotinamide] reads 93%; that for `COc1ccc2ncn(C)c2c1CNC(=O)Nc1ccc(OC(F)F)cc1` [Example 221, 1-(4-(difluoromethoxy)-phenyl)-3-((6-methoxy-1-methyl-lH-benzimidazol-7-yl)methyl)urea], 88%.
As for `CCc1ccc2[nH]nnc2c1CNC(=O)c1ccc(OC(F)(F)F)cc1` [Example 209, N-((5-ethyl-1H-benzotriazol-4-yl)methyl)-4-(trifluoromethoxy)-benzamide], the inhibition at 10 µM came out at 94%.
The result for `CCOc1ccc2ncn(C)c2c1CNC(=O)c1ccc(C(F)F)cc1` [Example 140, 4-(difluoromethyl)-N-((6-ethoxy-1-methyl-1H-benzimidazol-7-yl)methyl)benzamide] reads 90%; that for `COc1c(F)cc(C(=O)NCc2c(C3CC3)ccc3ncn(C)c23)cc1F` [Example 21], 91%; that for `O=C(NCc1cccc2[nH]ncc12)c1cc(Cl)c(Cl)s1` [Example 168, 4,5-dichloro-N-(1H-indazol-4-ylmethyl)thiophene-2-carboxamide], 90%.
In the case of `COCc1ccc2ncn(C)c2c1CNC(=O)c1csc(C(F)(F)F)c1` [Example 282, N-{[6-(methoxymethyl)-1-methyl-lH-benzimidazol-7-yl]methyl)-5-(trifluoromethyl)-thiophene-3-carboxamide] it was 76%; in that of `Cc1ccc2ncn(C)c2c1CNC(=O)c1ccc(OC(F)F)c(F)c1` [Example 109, 4-(difluoromethoxy)-N-((1,6-dimethyl-1H-benzimidazol-7-yl)methyl)-3-fluorobenzamide], 92%.
`O=C(NCc1cccc2[nH]nc(Br)c12)c1ccc(OC(F)(F)F)c(F)c1` [Example 272, N-[(3-bromo-1H-indazol-4-yl)methyl]-3-fluoro-4-(trifluoromethoxy)-benzamide]: the inhibition at 10 µM came out at 59%.
The result for `COc1ccc2ncn(C)c2c1CNC(=O)c1ccc(CC(F)(F)F)cc1` [Example 278, N-[(6-methoxy-1-methyl-1H-benzimidazol-7-yl)methyl]-4-(2,2,2-trifluoroethyl)-benzamide] reads 77%.
The result for `O=C(NCc1cccc2[nH]ncc12)c1cnc(OC(F)F)c(F)c1` [Example 191, 6-(difluoromethoxy)-5-fluoro-N-(1H-indazol-4-ylmethyl)nicotinamide] reads 94%.
In the case of `COc1ccc(NC(=O)NCc2c(OC)ccc3ncn(C)c23)cc1F` [Example 225, 1-(3-fluoro-4-methoxyphenyl)-3-((6-methoxy-1-methyl-1H-benzimidazol-7-yl)methyl)urea] it was 84%.
For the molecule `COc1ccc2nc(C)n(C)c2c1CNC(=O)c1ccc(OC(F)(F)F)nc1` [Example 233, N-((6-methoxy-1,2-dimethyl-lH-benzimidazol-7-yl)methyl)-6-(trifluoromethoxy)-nicotinamide], the inhibition at 10 µM turned out to be 72%.

The values above are taken from patent publication US11230541B2, “Heterocyclic compound” (Takeda Pharmaceutical Company Limited, priority 2017, dated 2022).
